Key:
SK-N-BE(2)c cells = assay: Clonogenic assay; type: cell-based, human; conditions: R9-caPep alone 20 µM 3 weeks, or cisplatin alone 1 µM 2 h, 3 dishes averaged
Description: Three hundred fifty SK-N-BE(2)c cells were seeded onto a 60-mm tissue culture dish. Once attached overnight, cells were treated with or without cisplatin for 2 h. Cells were washed twice with growth medium and were cultured in fresh medium with or without R9-caPep for 3 weeks to allow colony formation. The medium was changed every 3 d. The colonies formed under each treatment conditions were counted after being stained with 0.5% crystal violet.

[1] = tested on: PCNA and LIGI co-localization in SK-N-AS NB cells; assay: PCNA/LIGI co-localization, immunofluorescence; type: cell-based, human; conditions: synchronized, 30 µM peptide 6 h after mimosine release
Description: (§1) Cells were seeded at 1×10^5/ml onto a chamber slide and were allowed to attach overnight. To analyze the interaction of PCNA with FEN1, LIGI, or Pol ä, we first synchronize cells at the G1/S boundary. The synchronization is achieved by starving cells in medium containing 0.25% FBS for 24 h. Cells were further cultured in the complete medium containing 400 µM of mimosine for 24 h. To release cells into S phase, cells were washed and incubated in mimosine-free medium containing 30 µM R9-caPep or R9-srbPep for 6 h. We pre-determined that the majority of cells were in the S-phase 6 h after mimosine was removed (data not shown). Cells were fixed in ice-cold methanol:acetone (50%:50%) for 10 min or in 4% paraformaldehyde for 20 min at room temperature. Cells were incubated with a goat polyclonal anti-PCNA antibody (Santa Cruz) and a mouse monoclonal anti-FEN1 antibody (Santa Cruz), a mouse anti-POLD3 antibody (Sigma, St. Louis, MO), or a mouse anti-LIGI antibody (Abcam, Cambridge, MA) for 1 h at room temperature. After being washed with PBS, cells were incubated with Alexa Fluor 488 conjugated anti-mouse IgG and Alexa Fluor 555 conjugated anti-goat IgG antibodies (Invitrogen, Grand Island, NY) for 1 h. Cells were mounted in Vectashield with DAPI (Vector Labs, Burlingame, CA) and visualized by a confocal microscope.

ãH2A.X level = assay: γH2A.X western blot after γ-irradiation; type: cell-based; conditions: 30 µM peptide, 2 h pretreatment, 5 Gy
Description: (§2) To study DNA damage and repair, attached cells were pretreated with the peptides for 2 h and were then ã-irradiated (5 Gy). After irradiation, cells were cultured in the presence of the peptides for the indicated time. For analyzing ãH2A.X foci formation, cells were fixed in a solution of methanol and acetone (70%:30% v/v) for 15 min at −20°C. The slides were air-dried for storage and rehydrated in PBS prior to immunostaining. Cells were stained by a mouse monoclonal antibody specific to ãH2A.X (Millipore, Billerica, MA) followed by an Alexa Fluor 488 conjugated anti-mouse IgG antibody. For analyzing Rad51 foci formation, cells were fixed in PBS buffered 4% paraformaldehyde at room temperature for 15 min. After being washed twice by PBS, cells were permeabilized in PBS containing 0.5% triton for 15 min on ice. The fixed and permeabilized cells were stained with a rabbit polyclonal antibody raised against the human Rad51 (Santa Cruz) followed by an Alexa Fluor 488 conjugated anti-rabbit IgG antibody. Stained cells were visualized and imaged by a confocal microscope.
Cell extracts were prepared by dissolving cell pellets directly into the Laemmli sample buffer and resolved in a 4–12% SDS polyacrylamide gel. Resolved proteins were blotted onto a nitrocellulose membrane. The membrane was blocked with 5% nonfat dry milk and incubated with an antibody specific to ãH2A.X (Millipore), total H2A.X (Cell Signaling Technology, Danvers, MA), MYCN (Cell Signaling Technology), or actin (Sigma) in the blocking buffer. After incubation with peroxidase-conjugated secondary antibodies, the protein of interest was detected using an ECL kit purchased from GE Healthcare.

panel of NB cell lines = type: cell-based, human; conditions: up to 50 µM; data not shown
Description: The human NB cell lines, SK-N-DZ, SK-N-BE(2)c, SK-N-AS, SK-N-SH, and SK-N-FI were obtained from the American Type Culture Collection (Rockville, MD). Cells were maintained in DMEM with 10% fetal bovine serum (FBS), 100 units/ml penicillin, and 100 µg/ml streptomycin in the presence of 5% CO2 at 37°C. Human PBMCs from a healthy donor were purchased from Sanguine BioSciences (Valencia, CA) and grown in RPMI1640 with10% FBS, 100 units/ml penicillin, 100 µg/ml streptomycin, and 10 ng/ml IL-2 in the presence of 5% CO2 at 37°C. Human embryonic progenitor cell line 7SM0032 was acquired from Millipore (Billerica, MA) and grown in the hEPM-1 Media Kit purchased from the same company.
To measure cell growth, cells were seeded at 3×10^4/ml. After being allowed to attach overnight, cells were treated with various concentrations of the peptides for 72 h. Cell growth was measured by the CellTitor-Glo assay (Promega, Madison, WI) according to manufacturer's instruction. To measure apoptosis, cells were seeded at 1×10^5/ml onto a chamber slide. Once attached, cells were treated with the peptides for 48 h. Cells were fixed and analyzed by a TUNEL assay using the TMR red in situ cell death detection kit (Roche Diagnostics, Indianapolis, IN).

[2] = tested on: PCNA and FEN1 co-localization in SK-N-AS NB cells; assay: PCNA/FEN1 co-localization, immunofluorescence; type: cell-based, human; conditions: synchronized, 30 µM peptide 6 h after mimosine release
Description: as §1

[3] = tested on: Rad51 foci in SK-N-BE(2)c cells; assay: Rad51 foci immunofluorescence after γ-irradiation; type: cell-based, human; conditions: 2 h peptide pretreatment, 5 Gy; 48 h after irradiation
Description: as §2

synchronized cells = assay: Cell cycle analysis of synchronized cells within 6 h (data not shown); type: cell-based; conditions: 6 h after mimosine release
Description: Cells were seeded at 1×10^5/ml. Once attached, cells were treated with or without R9-caPep for 48 hours. Cells were fixed in 60% ethanol and stained with propidium iodide (PI). The cellular PI fluorescence intensity was determined by flow cytometry. The flow cytometry data were analyzed by the FlowJo program to model various cell populations.
as §1, with “After being washed with PBS, cells were incubated with Alexa Fluor 488 conjugated anti-mouse IgG and Alexa Fluor 555 conjugated anti-goat IgG antibodies (Invitrogen, Grand Island, NY) for 1 h. Cells were mounted in Vectashield with DAPI (Vector Labs, Burlingame, CA) and visualized by a confocal microscope.” left out

[4] = target: T1, interaction between PCNA and the PIP-box sequence of FEN1 (Homo sapiens, UniProt P39748); assay: SPR (Biacore) PCNA binding to immobilized FEN1 PIP-box in presence of caPep
T1 construct: Recombinant PCNA (rPCNA), purchased from Surmodics, Inc. (Edina, MN); FEN1 peptide containing the PIP-box (SKSRQGSTQGRLDDFF); purchased Surmodics, Inc. (Edina, MN)
Description: All experiments were conducted on the Biacore T100 (GE Healthcare Life Sciences, Piscataway, NJ) in the running buffer HBS-EP+ (10 mM HEPES pH 7.4, 0.15 M NaCl, 3 mM EDTA, 0.05% v/v Surfactant P20). FEN1 peptide containing the PIP-box (SKSRQGSTQGRLDDFF) was immobilized on a carboxymethylated dextran modified CM5 chip using carbodiimide covalent linkage procedures outlined by the manufacturer (GE Healthcare Life Sciences). Recombinant PCNA (rPCNA), purchased from Surmodics, Inc. (Edina, MN), were serially diluted in the HBS-EP+ buffer and flowed over the FEN1-coated sensor chip in the presence of 0, 500, or 1000 nM of caPep at a 5 ìl/min flow rate with a contact time of 3 minutes, followed by dissociation under the same buffer condition and regeneration of the chip surface in 10 mM glycine-HCl (pH 2.0). Binding curves were recorded for rPCNA concentrations ranging from 250 to 1000 nM in the presence of 0, 500, or 1000 nM of caPep. Kinetic parameters from Biacore binding data were determined using Biacore T100 Evaluation Software Version 2.0.3.

Question: With `N.N.[Cl][Pt][Cl]` [cisplatin, reference compound] as the compound, how does the “reduction of number of colonies, single agent” value (SK-N-BE(2)c cells) read?
Answer: The value was “less than 30%”.

Question: What does the source list for “RDRDRDRDRDRDRDRDRDCCEPGLIYEQ [R9-srbPep, R9-CC fused to the same residues as PCNA L126-Y133 in scrambled order; control]”?
Answer: LIGI co-localization with PCNA foci [1]: PCNA co-localized with FEN1 and LIGI at discrete foci; ãH2A.X level within 30 min after irradiation (ãH2A.X level): increased within 30 min following ã-irradiation in cells treated with either peptide; ãH2A.X level 48 h after irradiation (ãH2A.X level; 48 h): went down to a basal level by 48 h; effect on cell growth (panel of NB cell lines): did not significantly affect cell growth up to 50 µM; FEN1 co-localization with PCNA foci [2]: PCNA co-localized with FEN1 and LIGI at discrete foci; Rad51 foci at 48 h [3]: almost completely resolve the Rad51 foci; cell cycle progress within 6 h (synchronized cells): neither peptide significantly affected cell cycle progress within 6 h

Question: What does the source list for “caPep: eight amino acid peptide corresponding to the L126-Y133 sequence of human PCNA (LGIPEQEY)”?
Answer: affinity of PCNA-FEN1 PIP-box interaction ([4]; 0, 500 or 1000 nM caPep): decrease the affinity of PCNA-FEN1 PIP-box interaction in a dose-dependent manner; rPCNA interaction with immobilized FEN1 PIP-box sequence (SPR response) ([4]; 1000 nM rPCNA, 0, 500 or 1000 nM caPep): significantly reduced rPCNA interaction with the immobilized FEN1 PIP-box sequence
